Results published in paper PMC8151276, “An Integrated Approach toward NanoBRET Tracers for Analysis of GPCR Ligand Engagement” (Molecules, 2021).

Target: T1, RXFP1 (Homo sapiens, UniProt Q9HBX9)
T1 construct: purchased Promega (in-house HiBiT-GPCR construct library, NanoBRET)
T1 sequence (Q9HBX9 1-757): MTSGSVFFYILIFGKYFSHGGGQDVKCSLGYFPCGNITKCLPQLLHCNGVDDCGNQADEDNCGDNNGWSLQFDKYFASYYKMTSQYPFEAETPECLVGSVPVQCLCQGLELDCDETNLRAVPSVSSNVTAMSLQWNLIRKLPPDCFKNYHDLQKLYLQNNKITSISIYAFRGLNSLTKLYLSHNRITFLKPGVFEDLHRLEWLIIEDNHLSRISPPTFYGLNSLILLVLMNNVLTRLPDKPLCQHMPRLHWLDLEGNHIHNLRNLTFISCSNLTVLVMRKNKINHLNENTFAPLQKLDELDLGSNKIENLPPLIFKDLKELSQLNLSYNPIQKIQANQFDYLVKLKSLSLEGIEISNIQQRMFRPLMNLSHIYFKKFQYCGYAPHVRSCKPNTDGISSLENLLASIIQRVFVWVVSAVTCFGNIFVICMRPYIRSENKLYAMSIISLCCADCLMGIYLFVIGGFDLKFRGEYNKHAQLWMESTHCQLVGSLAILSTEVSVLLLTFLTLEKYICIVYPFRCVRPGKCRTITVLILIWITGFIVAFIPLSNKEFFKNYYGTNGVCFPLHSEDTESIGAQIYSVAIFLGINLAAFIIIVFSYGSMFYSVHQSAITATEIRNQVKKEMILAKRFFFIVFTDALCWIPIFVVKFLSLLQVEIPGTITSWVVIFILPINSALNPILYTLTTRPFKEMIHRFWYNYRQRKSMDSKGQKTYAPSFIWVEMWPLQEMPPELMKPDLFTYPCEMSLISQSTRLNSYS
Assay: NanoBRET screen HiBiT-RXFP1 in HEK293
Assay type: binding
Protocol: Each tracer candidate was screened across the entire library of HiBiT-GPCR constructs using NanoBRET as the detection modality. As depicted in Figure 4A, the specificity of interactions was evaluated through decrease in BRET due to competitive displacement of a bound tracer by excess parental compound. Each tracer was analyzed for binding to each HiBiT-GPCR fusion in the absence and in the presence of competing parental compound. Briefly, HEK293 cells were transfected with HiBiT-GPCR constructs diluted into promoterless DNA to reduce expression and maximize translocation to the cell surface. Each tracer candidate was then screened at concentrations of 1 μM and 0.1 μM across cells expressing these fusions. Cells were treated for 1.5 h with tracer either alone or in the presence of 20 μM competing parental compound (i.e., control). BRET was measured upon addition of purified LgBiT and subsequent complementation with HiBiT genetically fused to a GPCR. The specificity of interactions was assessed through a decrease in BRET signal due to competitive displacement of the bound tracer. To further gauge the robustness of these interactions, the fold response over the control (i.e., BRETtracer/BRETcontrol) was calculated. We chose a 1.5-fold response, which translates to ≥7-fold signal over noise as the minimal threshold required to score an interaction as positive.
HiBiT-GPCR DNA constructs were diluted in 10 mM Tris pH 8 to a final concentration of 0.01 μg/μL, arrayed in 96-well plates and stored at −20 °C. For transfection, HEK293 cells were suspended in Opti-MEM (without phenol red) supplemented with 2% fetal bovine serum (Seradigm) and 100 units/mL penicillin–streptomycin (Gibco) at a final concentration of 220,000 cells/mL and dispensed into white 96-well plates at 90 μL/well. Subsequent transfections and screens were carried using an Agilent Bravo Automated Liquid Handling Platform. First, the 96-well HiBiT DNA arrays were diluted 25-fold in Opti-MEM (without serum or phenol red) to a final concentration of 0.0004 μg/μL and 20 μL of the diluted DNAs were transferred into new 96-well plates. Next, promoterless carrier DNA (1 μg/μL) was diluted 25-fold (0.04 μg/μL) and then dispensed into the diluted arrays at 20 μL/well. Following brief mixing, Viafect transfection reagent (Promega) diluted 16-fold into Opti-MEM was dispensed into the plates at 40 μL/well. After mixing by pipetting, plates were incubated for 10 min on the pipetting station deck. The DNA-transfection reagent complexes were then added to plates containing cells. To facilitate the screen, 10 μL of DNA-transfection reagent complexes were added in duplicates to the top 4 and bottom 4 rows, resulting in two identical 48-well arrays per plate. Plates with transfected cells were incubated for 18–20 h at 37 °C/5% CO2. A screen of each tracer across the entire library using two different concentrations requires duplicate plates of transfected cells. Depending on the number of tracers being screened, transfections can be scaled up using the same ratios. The next day, for each tracer, four 20× screening solutions in tracer dilution buffer (Promega) were prepared: two duplicates at final concentration of 20 μM and two duplicates at a final concentration of 2 μM. […] The four resulting solutions were diluted 4-fold in Opti-MEM without serum or phenol red to generate 5× solutions (5 µM and 0.5 µM tracer +/− 100 μM competing compound). To screen the library, a BioTek MultiFlo FX liquid dispenser was used to dispense 22.5 µL of tracer solution to the top 4 rows and 22.5 µL tracer + competing compound solution to the 4 bottom rows. Plates were briefly mixed on an orbital shaker and incubated for 1.5 h at room temperature. […] Plates were briefly mixed on an orbital shaker and incubated for 15 min to allow complementation.

Row | Structure (SMILES) | NanoBRET Fold Response (RXFP1, tracer 0.1μM) | NanoBRET Fold Response (RXFP1, tracer 1μM) | further results
1 | CN1CCN(C2=Nc3cc(Cl)ccc3Nc3ccc(CNC(=O)CCOCCOCCOCCOCCNC(=O)CCc4ccc5n4[B-](F)(F)[N+]4=C(c6ccc[nH]6)C=CC4=C5)cc32)CC1 [Clozapine-b-2-NB590] |  |  | NanoBRET Fold Response (RXFP1, 0.1μM tracer): 0.90; NanoBRET Fold Response (RXFP1, 1μM tracer): 0.75
2 | CN(C)CCC=C1c2ccccc2CCc2ccc(C(=O)NCCNC(=O)CCOCCOCCOCCOCCNC(=O)CCc3ccc4n3[B-](F)(F)[N+]3=C(c5ccc[nH]5)C=CC3=C4)cc21 [Amitriptyline-b-2-NB590] |  |  | NanoBRET Fold Response (tracer at 0.1μM): 0.90; NanoBRET Fold Response (tracer at 1μM): 1.13
3 | CCOC(=O)c1cc(C#N)c(N2CCC(C(=O)NS(=O)(=O)Cc3ccccc3/C=C/C(=O)NCCNC(=O)CCc3ccc4n3[B-](F)(F)[N+]3=C(c5ccc[nH]5)C=CC3=C4)CC2)nc1C [AZD1283-1-NB590] |  |  | NanoBRET Fold Response (RXFP1, 0.1μM): 1.16; NanoBRET Fold Response (RXFP1, 1μM): 0.49
4 | CC(C)N(CC[C@H](c1ccccc1)c1cc(CCNC(=O)CCOCCOCCOCCOCCNC(=O)CCc2ccc3n2[B-](F)(F)[N+]2=C(c4ccc[nH]4)C=CC2=C3)ccc1O)C(C)C [Tolterodine-2-NB590] | 1.11 | 0.81 | 
5 | CC(C)N(CC[C@H](c1ccccc1)c1cc(CCNC(=O)c2ccc(CNC(=O)CCc3ccc4n3[B-](F)(F)[N+]3=C(c5ccc[nH]5)C=CC3=C4)cc2)ccc1O)C(C)C [Tolterodine-BZ-NB590] | 1.12 | 1.23 | 
6 | O=C(CCOCCOCCOCCOCCNC(=O)CCc1ccc2n1[B-](F)(F)[N+]1=C(c3ccc[nH]3)C=CC1=C2)NCCCN1CCN(C2=Nc3ccccc3Oc3ccc(Cl)cc32)CC1 [Loxapine-a-2-NB590] | 0.94 | 0.80 | 
7 | CN1CCN(C2=Nc3cc(Cl)ccc3N(CC(=O)NCCOCCOCCOCCOCCNC(=O)CCc3ccc4n3[B-](F)(F)[N+]3=C(c5ccc[nH]5)C=CC3=C4)c3ccccc32)CC1 [Clozapine-c-2-NB590] |  |  | NanoBRET Fold Response (RXFP1, 0.1μM tracer): 0.85; NanoBRET Fold Response (RXFP1, 1μM tracer): 1.27
8 | Cc1nc2n(c(=O)c1CCN1CCC(c3noc4cc(F)ccc34)CC1)CCCC2OC(=O)NCCOCCOCCOCCOCCNC(=O)CCc1ccc2n1[B-](F)(F)[N+]1=C(c3ccc[nH]3)C=CC1=C2 (centres unmarked) [Risperidone-2-NB590] | 1.26 | 0.90 | 
9 | COc1ccc2[nH]c(-c3ccc(CNC(=O)CCOCCOCCOCCOCCNC(=O)CCc4ccc5n4[B-](F)(F)[N+]4=C(c6ccc[nH]6)C=CC4=C5)cc3)c(CCNC(C)=O)c2n1 [AzomelatoninICO9-2-NB590] |  |  | NanoBRET Fold Response (0.1μM tracer): 1.23; NanoBRET Fold Response (1μM tracer): 1.24
10 | COc1ccccc1N1CCN(CCCCN2C(=O)c3ccc(CNC(=O)CCOCCOCCOCCOCCNC(=O)CCc4ccc5n4[B-](F)(F)[N+]4=C(c6ccc[nH]6)C=CC4=C5)cc3C2=O)CC1 [NAN-190-2-NB590] | 0.78 | 0.92 | 
11 | O=C(CCc1ccc2n1[B-](F)(F)[N+]1=C(c3ccc[nH]3)C=CC1=C2)NCCOCCOCCNC(=O)OCCOCCN1CCN(C2=Nc3ccccc3Sc3ccccc32)CC1 [Quetiapine-a-2-NB590] | 0.53 | 1.01 | 
12 | O=C(CCOCCOCCOCCOCCNC(=O)CCc1ccc2n1[B-](F)(F)[N+]1=C(c3ccc[nH]3)C=CC1=C2)NCCCN1CCN(C2=Nc3cc(Cl)ccc3Nc3ccccc32)CC1 [Clozapine-a-2-NB590] |  |  | NanoBRET Fold Response (RXFP1, 0.1μM tracer): 1.12; NanoBRET Fold Response (RXFP1, 1μM tracer): 1.23
13 | N#CN=C(NCCCOc1cccc(CN2CCCCC2)c1)NCCNC(=O)CCOCCOCCOCCOCCNC(=O)CCc1ccc2n1[B-](F)(F)[N+]1=C(c3ccc[nH]3)C=CC1=C2 [Aminopotentidine-2-NB590] | 0.79 | 1.28 | 
14 | O=C(CCc1ccc2n1[B-](F)(F)[N+]1=C(c3ccc[nH]3)C=CC1=C2)NCc1ccc(C(=O)NCCOCCOCCNCC(O)COc2cccc3ccccc23)cc1 (centres unmarked) [Propranolol-3-NB590] |  |  | NanoBRET Fold Response (RXFP1, 0.1μM): 0.90; NanoBRET Fold Response (RXFP1, 1μM): 0.90
15 | O=C(CCc1ccc2n1[B-](F)(F)[N+]1=C(c3ccc[nH]3)C=CC1=C2)NCc1ccc(C(=O)NCCOCCC(=O)N[C@@H]2CC[C@@]3(O)[C@H]4Cc5ccc(O)c6c5[C@@]3(CCN4CC3CC3)[C@H]2O6)cc1 [Naltrexone-3-NB590] | 1.31 | 1.24 | 
16 | COc1ccccc1N1CCN(CCCCN2C(=O)c3ccc(CNC(=O)CCOCCNC(=O)c4ccc(CNC(=O)CCc5ccc6n5[B-](F)(F)[N+]5=C(c7ccc[nH]7)C=CC5=C6)cc4)cc3C2=O)CC1 [NAN-190-3-NB590] | 0.88 | 0.90 | 
17 | Cc1cc2c(s1)Nc1ccccc1N=C2N1CCN(CCCNC(=O)CCOCCOCCOCCOCCNC(=O)CCc2ccc3n2[B-](F)(F)[N+]2=C(c4ccc[nH]4)C=CC2=C3)CC1 [Olanzapine-a-2-NB590] | 1.25 | 0.79 | 
18 | CCCn1c(=O)c2[nH]c(-c3ccc(OCC(=O)NCCNC(=O)CCOCCNC(=O)c4ccc(CNC(=O)CCc5ccc6n5[B-](F)(F)[N+]5=C(c7ccc[nH]7)C=CC5=C6)cc4)cc3)nc2n(CCC)c1=O [XAC-3-NB590] | 1.04 | 0.93 | 
19 | COc1ccc2c(n1)c(CCNC(C)=O)cn2CCNC(=O)CCc1ccc2n1[B-](F)(F)[N+]1=C(c3ccc[nH]3)C=CC1=C2 [Azamelatonin-1-NB590] |  |  | NanoBRET Fold Response (0.1μM tracer): 1.38; NanoBRET Fold Response (1μM tracer): 1.20
